Assays:
[1] = biological target: mTORC1 (Homo sapiens (Human), UniProt P42345+P62942); test: mTORC1 inhibition, AlphaLISA of Phospho-p70 S6 kinase (p70S6K pT389) in PC-3 cells; format: cell-based; settings: inhibition of p70S6K pT389 levels
[2] = biological target: FKBP51 (Homo sapiens (Human), UniProt Q13451); test: SPR assay to determine binding affinity to FKBP51 (direct binding); settings: immobilized biotinylated avi-FKBP51
Method: Example 29: SPR Assay to Determine Binding Affinity to FKBP51
Biotinylated avi-FKBP51 was immobilized on a streptavidin chip (Cytiva Series S SA) using a Biacore 8K or 8 k+ (Cytiva). To achieve an immobilization level of 2000 RU, 3 μg/ml biotinylated avi-FKBP51 were injected for 360 sec at a flow rate of 10 μl/min. Rapalogs were diluted in DMSO to 100× working concentration. Each Rapalog was 100-fold diluted in 50 mM HEPES pH 7.5, 150 mM NaCl, 2 mM MgCl2, 1 mM DTT, 0.05% Tween-20 and a serial dilution prepared (8 concentrations, 3-fold dilutions, 0.5-1000 nM). […] The compound dilutions were then injected at 100 uL/min for 120 seconds contact time and with 3600 seconds dissociation time with increasing concentrations. 50 mM HEPES pH 7.5, 150 mM NaCl, 2 mM MgCl2, 1 mM DTT, 0.05% Tween-20, 1% DMSO was used as running buffer. Multi-cycle kinetics data were fit to a 1:1 binding model to measure the association rate ka (1/Ms), the dissociation rate kd (1/s) and the affinity Kd (M).

[3] = biological target: FKBP12 (Homo sapiens (Human), UniProt P62942); test: SPR assay to determine binding affinity to FKBP12 (direct binding); settings: immobilized biotinylated avi-FKBP12
FKBP12, sequence (P62942 whole entry): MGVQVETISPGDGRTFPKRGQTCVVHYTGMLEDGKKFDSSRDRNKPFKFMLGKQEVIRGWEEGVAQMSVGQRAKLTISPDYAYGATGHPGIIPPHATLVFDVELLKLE
Method: SPR Assay to Determine Binding Affinity to FKBP12.
Biotinylated avi-FKBP12 was immobilized on a streptavidin chip (Cytiva Series S SA) using a Biacore 8K or 8 k+ (Cytiva). To achieve an immobilization level of 1000 RU, 2 μg/ml biotinylated avi-FKBP12 were injected for 100 sec at a flow rate of 10 μl/min. Rapalogs were diluted in DMSO to 100× working concentration. Each Rapalog was 100-fold diluted in 50 mM HEPES pH 7.5, 150 mM NaCl, 2 mM MgCl2, 1 mM DTT, 0.05% Tween-20 and a serial dilution prepared (9 concentrations, 3-fold dilutions, 0.08-500 nM). […] The compound dilutions were then injected at 100 uL/min for 120 seconds contact time in sequence with increasing concentrations. Dissociation was monitored for 3600 seconds. 50 mM HEPES pH 7.5, 150 mM NaCl, 2 mM MgCl2, 1 mM DTT, 0.05% Tween-20, 1% DMSO was used as running buffer. The single-cycle kinetics data were fit to a 1:1 binding model to measure the association rate ka (1/Ms), the dissociation rate kd (1/s) and the affinity Kd (M).

[4] = biological target: FKBP51 / FRB ternary complex (Homo sapiens (Human), UniProt P42345+Q13451); test: SPR assay to characterize ternary complex formation with FKBP51 (FRB binding to rapalog-saturated FKBP51); settings: FRB dilutions with 100 nM rapalog on immobilized FKBP51
Method: Example 31: SPR Assay to Characterize Ternary Complex Formation with FKBP51
(§1) Biotinylated avi-FKBP51 was immobilized on a streptavidin chip (Cytiva Series S SA) using a Biacore 8K or 8 k+ (Cytiva). To achieve an immobilization level of 200 RU, 0.6 μg/ml biotinylated avi-FKBP51 were injected for 150 sec at a flow rate of 10 μl/min. Serial dilution of FRB was prepared (12 concentrations, 3-fold dilutions, 0.00011-20 μM) and supplemented with 100 nM of rapalog. A-B-A injection mode was used to ensure saturation immobilized […] with respective rapalog. 100 nM solution of the respective rapalog was injected before FRB injection for 120 sec and during dissociation for 420 sec. The FRB dilutions were then injected 120 seconds contact time with increasing concentrations. […] 50 mM HEPES pH 7.5, 150 mM NaCl, 2 mM MgCl2, 1 mM DTT, 0.05% Tween-20, 1% DMSO was used as running buffer at a flow rate of 30 μl/min. The multi-cycle kinetics data were fit to a 1:1 binding model to measure the association rate ka (1/Ms), the dissociation rate kd (1/s) and the affinity Kd (M). In case of fast association and dissociation, steady state affinity analysis following the law of mass action was used to determine the affinity Kd (M).

[5] = biological target: FKBP12 / FRB ternary complex (Homo sapiens (Human), UniProt P42345+P62942); test: SPR assay to characterize ternary complex formation with FKBP12 (FRB binding to rapalog-saturated FKBP12); settings: FRB dilutions with 100 nM rapalog on immobilized FKBP12
Method: Example 30: SPR Assay to Characterize Ternary Complex Formation with FKBP12
as §1, with “Biotinylated avi-FKBP12” for “Biotinylated avi-FKBP51”, “of 100” for “of 200”, “RU, 0.3” for “RU, 0.6”, “biotinylated avi-FKBP12” for “biotinylated avi-FKBP51”, “for 80” for “for 150”

[6] = biological target: mTORC2 (Homo sapiens (Human), UniProt P42345+P62942); test: mTORC2 inhibition, AlphaLISA of Phospho-AKT (pAKT pS473) in PC3 cells; format: cell-based
Method: Example 32: mTORC1 Inhibition, mTORC2 Inhibition, Cell Lysis, AlphaLISA Experiments, and Data Analysis
mTORC2 inhibition was determined via analysis of phosphorylation level of Phospho-AKT (pAKT pS473) with the corresponding AlphaLISA kit (PerkinElmer, Alpha SF Ultra™ Multiplex p-AKT1/2/3(Ser473)/Total AKT1). PC3 cells were plated on 96 well plates in assay medium (DMEM: Ham's F12, basic (CLS Cell Lines Service GmbH, Cat #820400a), supplemented with additional 10% FBS at 1.20E+06 cells/mL and incubated over-night at 37° C., 5% CO2. On the following day, cells were treated with assay medium (10% FBS) containing increasing compound concentrations (12 points at 3-fold dilutions) and incubated for 6 hours at 37° C., 5% CO2. Thereafter, medium was aspirated and cells were rinsed with PBS. In the following, cells were treated with compound dilutions in starvation medium (DMEM: Ham's F12, basic; without FBS) for further 18 h at 37° C., 5% CO2. Then, immediately prior to cell lysis, cells were treated with 12% FBS for 15 min.
After performing experiments according to mTORC1 and mTORC2 protocols, cells were harvested in lysis buffer supplied with the AlphaLISA kits, additionally enriched with Roche cOmplete™ Protease Inhibitor Cocktail (Cat #CO-RO). Thus, cells were lysed using 50 μL of the lysis buffer and incubated for 60 min at 4° C. while shaking. After centrifugation at 4000 rpm for 5 min, experiments were performed according to the AlphaLISA manufacturer's protocol.
Ten microliters of cell lysates were mixed with the acceptor mix. After incubation for 2 h at room temperature, the donor mix was added. After additional incubation at room temperature for 2 hours, AlphaLISA signal was read on PHERAstar® FSX (BMG Labtech) with AlphaPLEX module.
EC50 values were calculated by ExcelFit standard algorithm.

FKBP51, sequence (Q13451 whole entry): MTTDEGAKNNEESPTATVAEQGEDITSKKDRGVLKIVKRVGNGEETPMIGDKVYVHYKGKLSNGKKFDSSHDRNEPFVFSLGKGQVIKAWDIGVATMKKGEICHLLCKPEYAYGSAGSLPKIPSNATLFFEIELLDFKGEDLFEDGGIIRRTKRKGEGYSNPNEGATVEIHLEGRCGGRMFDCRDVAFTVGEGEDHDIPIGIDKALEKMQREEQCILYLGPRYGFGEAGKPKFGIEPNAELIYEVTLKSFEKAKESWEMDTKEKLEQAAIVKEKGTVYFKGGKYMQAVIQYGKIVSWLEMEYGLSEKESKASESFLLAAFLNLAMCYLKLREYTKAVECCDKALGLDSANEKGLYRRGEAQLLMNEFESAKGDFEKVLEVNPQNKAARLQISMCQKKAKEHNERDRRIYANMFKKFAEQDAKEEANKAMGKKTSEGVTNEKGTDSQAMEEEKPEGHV

SMILES | IC50 [1] [nM] | Kd [2] [nM] | Kd [3] [nM] | Kd [4] [nM] | Kd [5] [nM] | mTORC2 % inhibition at 1 uM [6]
COCCOCCOC1CC2CCC(C)C(O)(O2)C(=O)C(=O)N2CCCCC2C(=O)OC(C(C)CC2CCC(OCCCS(C)(=O)=O)C(OC)C2)CC(=O)C(C)C=C(C)C(O)C(OC)C(=O)C(C)CC(C)C=CC=CC=C1C (mixture of isomers) [Compound 65] | 0.1 to 0.8 | 10 to 100 | < 0.3 | > 800 | 300 to 800 | A (A ≤20% inhibition at 1 micro Molar (uM))
COCCOCCOCCOC1CC2CCC(C)C(O)(O2)C(=O)C(=O)N2CCCCC2C(=O)OC(C(C)CC2CCC(OCCCS(C)(=O)=O)C(OC)C2)CC(=O)C(C)C=C(C)C(O)C(OC)C(=O)C(C)CC(C)C=CC=CC=C1C (mixture of isomers) [Compound 66] | 0.1 to 0.8 | 10 to 100 | 0.3 to 1 | > 800 | > 800 | A (A ≤20% inhibition at 1 micro Molar (uM))
COCCOCCS(=O)(=O)NC1CC2CCC(C)C(O)(O2)C(=O)C(=O)N2CCCCC2C(=O)OC(C(C)CC2CCC(OCCCO)C(OC)C2)CC(=O)C(C)C=C(C)C(O)C(OC)C(=O)C(C)CC(C)C=CC=CC=C1C (stereo not drawn) [Compound 2] | < 0.1 | 10 to 100 | < 0.3 | 300 to 800 | < 300 | A (A ≤20% inhibition at 1 micro Molar (uM))
COCCOCCS(=O)(=O)NC1CC2CCC(C)C(O)(O2)C(=O)C(=O)N2CCCCC2C(=O)OC(C(C)CC2CCC(OCCCO)C(OC)C2)CC(=O)C(C)C=C(C)C(O)C(OC)C(=O)C(C)CC(C)C=CC=CC=C1C (stereo not drawn) [Compound 3] | > 0.8 | > 100 | 0.3 to 1 | > 800 | > 800 | A (A ≤20% inhibition at 1 micro Molar (uM))
CO[C@@H]1C[C@H](C[C@@H](C)[C@@H]2CC(=O)[C@H](C)/C=C(\C)[C@@H](O)[C@@H](OC)C(=O)[C@H](C)C[C@H](C)/C=C/C=C/C=C(\C)[C@H](NS(=O)(=O)CC3CCOCC3)C[C@@H]3CC[C@@H](C)[C@@](O)(O3)C(=O)C(=O)N3CCCC[C@H]3C(=O)O2)CC[C@H]1O [Compound 5] | 0.1 to 0.8 | 10 to 100 | < 0.3 | > 800 | > 800 | A (A ≤20% inhibition at 1 micro Molar (uM))
CO[C@@H]1C[C@H](C[C@@H](C)[C@@H]2CC(=O)[C@H](C)/C=C(\C)[C@@H](O)[C@@H](OC)C(=O)[C@H](C)C[C@H](C)/C=C/C=C/C=C(\C)[C@@H](NS(=O)(=O)CC3CCOCC3)C[C@@H]3CC[C@@H](C)[C@@](O)(O3)C(=O)C(=O)N3CCCC[C@H]3C(=O)O2)CC[C@H]1O [Compound 6] | 0.1 to 0.8 | < 10 | < 0.3 | > 800 | > 800 | A (A ≤20% inhibition at 1 micro Molar (uM))
COC1C(=O)C(C)CC/C=C/C=C/C=C(\C)[C@H](NS(=O)(=O)CCO)C[C@H]2CC[C@H](C)[C@](O)(O2)C(=O)C(=O)N(C)C(C)C(=O)OC([C@H](C)C[C@@H]2CC[C@@H](OC3CC3)[C@H](OC)C2)CC(=O)C(C)/C=C(\C)C1O (stereo partly drawn) [Compound 10] | 0.1 to 0.8 | 10 to 100 | 0.3 to 1 | 300 to 800 | 300 to 800 | A (A ≤20% inhibition at 1 micro Molar (uM))

Further lines, with some results ahead:

IC50 [1] [nM] | Kd [2] [nM] | Kd [3] [nM] | Kd [4] [nM] | Kd [5] [nM] | SMILES | mTORC2 % inhibition at 1 uM [6]
0.1 to 0.8 | 10 to 100 | < 0.3 | 300 to 800 | 300 to 800 | COCCS(=O)(=O)NC1CC2CCC(C)C(O)(O2)C(=O)C(=O)N2CCCCC2C(=O)OC(C(C)CC2CCC(O)C(OC)C2)CC(=O)C(C)C=C(C)C(O)C(OC)C(=O)C(C)CC(C)C=CC=CC=C1C (mixture of isomers) [Compound 24] | A (A ≤20% inhibition at 1 micro Molar (uM))
0.1 to 0.8 | 10 to 100 | < 0.3 | 300 to 800 | 300 to 800 | COCCOCCS(=O)(=O)N[C@@H]1C[C@@H]2CC[C@@H](C)[C@@](O)(O2)C(=O)C(=O)N2CCCC[C@H]2C(=O)O[C@H]([C@H](C)C[C@@H]2CC[C@@H](O)[C@H](OC)C2)CC(=O)[C@H](C)/C=C(\C)[C@@H](O)[C@@H](OC)C(=O)[C@H](C)C[C@H](C)/C=C/C=C/C=C/1C [Compound 8] | B (B>20% and less than 40% inhibition at 1 uM)
< 0.1 | < 10 | < 0.3 | < 300 | < 300 | COCCOCCS(=O)(=O)N[C@H]1C[C@@H]2CC[C@@H](C)[C@@](O)(O2)C(=O)C(=O)N2CCCC[C@H]2C(=O)O[C@H]([C@H](C)C[C@@H]2CC[C@@H](O)[C@H](OC)C2)CC(=O)[C@H](C)/C=C(\C)[C@@H](O)[C@@H](OC)C(=O)[C@H](C)C[C@H](C)/C=C/C=C/C=C/1C [Compound 9] | C (C≥40% and less than 60% inhibition at 1 uM)
